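Assay format: 96-well plates, 48-hour exposure. At the GI50, growth is halved.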 Active and inactive are the calls of the source. Cut-off read from the data, not from the text of the source: active = GI50 up to about 1.1 µM and inactive = higher.
Assays:
Assay in all cases: NCI-60 cell line screen, 48 h
[1] = tested on: ACHN
[2] = tested on: HCC 2998
[3] = tested on: HOP-62
[4] = tested on: HOP-92
[5] = tested on: IGROV-1
[6] = tested on: MCF7
[7] = tested on: MOLT-4
[8] = tested on: Malme-3M
[9] = tested on: NCI-H23
[10] = tested on: NCI/ADR-RES
[11] = tested on: RXF 393
[12] = tested on: SF-539
[13] = tested on: SK-MEL-28
[14] = tested on: SK-MEL-2
[15] = tested on: SN12C
[16] = tested on: SR
[17] = tested on: T47D
[18] = tested on: NCI-H460
[19] = tested on: UO-31
[20] = tested on: NCI-H522

Measured: GI50

CCOC(=O)COc1cc(-c2ccccc2F)nc2cc3c(cc12)OCO3
inactive: [1] > 100 µM | [2] > 100 µM | [3] > 100 µM | [4] 19.7 µM | [5] 90.8 µM | [6] > 100 µM | [7] 27.8 µM | [8] > 100 µM | [9] > 100 µM | [10] > 100 µM | [11] > 100 µM | [12] > 100 µM | [13] > 100 µM | [14] > 100 µM | [15] > 100 µM | [16] > 10 µM | [17] 79.8 µM

Cc1ccc(Nc2nc(NNC(=O)Cc3ccccc3)nc(NNC(=O)c3ccncc3)n2)cc1
inactive: [2] > 10 µM | [3] > 10 µM | [4] > 10 µM | [5] > 10 µM | [6] > 10 µM | [7] > 10 µM | [8] > 10 µM | [9] > 10 µM | [18] > 10 µM | [10] > 10 µM | [12] > 10 µM | [13] > 10 µM | [15] > 10 µM | [16] > 10 µM | [17] > 10 µM | [19] 8.49 µM

COc1ccc(OC)c2c(C(C)=O)cccc12
inactive: [1] > 100 µM | [2] > 100 µM | [3] > 100 µM | [5] > 100 µM | [6] > 100 µM | [7] 81.8 µM | [8] > 100 µM | [9] > 100 µM | [18] > 100 µM | [20] > 100 µM | [10] > 100 µM | [11] > 100 µM | [12] > 100 µM | [13] > 100 µM | [15] > 100 µM | [16] > 100 µM | [17] > 100 µM | [19] > 100 µM

CC1CN=C(N(C)C(=O)Nc2ccc(Cl)cc2)S1 (stereo not given)
inactive: [1] 1.3 µM | [2] 4.29 µM | [3] 48.2 µM | [4] 29.9 µM | [5] 4.56 µM | [6] 32.6 µM | [7] 14 µM | [8] 53.1 µM | [9] 21.3 µM | [18] 3.77 µM | [10] 1.9 µM | [12] 10.6 µM | [13] 16.5 µM | [14] 15.4 µM | [15] 15.2 µM | [16] 12.3 µM | [17] 4.19 µM | [19] 10.1 µM

Brc1ccc(/N=N/N2CCCCC2)cc1
inactive: [1] 76.6 µM | [3] 67 µM | [4] 33.6 µM | [5] 44.6 µM | [6] 35.5 µM | [7] 19.9 µM | [9] 62.1 µM | [18] 45 µM | [20] 24 µM | [10] 51.3 µM | [11] 38.3 µM | [12] > 100 µM | [14] 20.3 µM | [15] 57.9 µM | [16] 16.6 µM | [17] 42.3 µM | [19] 60 µM

Nc1nc(=O)c(/N=N/c2ccc([As](=O)(O)O)cc2)c(N)[nH]1
inactive: [1] > 100 µM | [2] > 100 µM | [3] > 100 µM | [5] > 100 µM | [6] > 100 µM | [7] > 100 µM | [8] > 100 µM | [9] > 100 µM | [18] > 100 µM | [20] > 100 µM | [10] > 100 µM | [11] > 100 µM | [13] > 100 µM | [14] > 100 µM | [15] > 100 µM | [16] > 100 µM | [17] > 100 µM | [19] > 100 µM

COc1cc(CC(C)NC(C)=O)cc(OC)c1 (stereo not given)
inactive: [1] > 100 µM | [2] > 100 µM | [3] > 100 µM | [5] > 100 µM | [6] > 100 µM | [7] > 100 µM | [8] > 100 µM | [9] > 100 µM | [18] > 100 µM | [20] > 100 µM | [10] > 100 µM | [11] > 100 µM | [12] > 100 µM | [13] > 100 µM | [14] > 100 µM | [15] > 100 µM | [16] 3.04 µM | [17] > 100 µM | [19] > 100 µM

CC(=O)OC(OC(C)=O)c1c2ccccc2cc2ccccc12
inactive: [1] 24.1 µM | [2] 15.6 µM | [4] 21.4 µM | [5] 21.2 µM | [6] 16.5 µM | [7] 2.78 µM | [9] 25.1 µM | [18] 14.6 µM | [10] 8.34 µM | [11] 13.3 µM | [12] 14.8 µM | [15] 12.9 µM | [16] 9.53 µM | [17] 17.2 µM | [19] 19.3 µM

CC(=O)Nc1ccccc1S(=O)(=O)c1c(-c2c(C)c(Cl)c(C)c(Cl)c2C)noc1C
inactive: [1] 55.2 µM | [2] 90.4 µM | [3] 19.7 µM | [5] 56.6 µM | [6] 35.1 µM | [7] 24.2 µM | [8] > 100 µM | [9] 67.6 µM | [18] 26.5 µM | [20] 49.5 µM | [10] 41.2 µM | [11] 28.8 µM | [13] > 100 µM | [14] > 100 µM | [15] 30.3 µM | [16] 16.1 µM | [17] 68.1 µM | [19] > 100 µM

CC1=CC(=O)c2ccc(C)cc2C1=O [CHIMAPHILIN]
inactive: [1] 7.45 µM | [2] 19.8 µM | [3] 17.4 µM | [4] 1.85 µM | [5] 15.1 µM | [6] 3.05 µM | [7] 2.41 µM | [9] 5.22 µM | [18] 14.2 µM | [20] 4.09 µM | [10] 10.4 µM | [12] 15.6 µM | [13] 6.82 µM | [14] 16.2 µM | [15] 19.1 µM | [16] 3.4 µM | [17] 2.91 µM | [19] 11.4 µM

CC(=O)OCC1(CNc2nc(N)ncc2C#N)CC(CCc2ccccc2)C1 (stereo not given)
inactive: [1] 28.4 µM | [3] 14.4 µM | [4] 2.45 µM | [5] 21.4 µM | [6] 12 µM | [7] 2.89 µM | [8] > 100 µM | [9] 2.49 µM | [18] 26.8 µM | [20] 20.2 µM | [10] 10.3 µM | [11] 27.5 µM | [12] > 100 µM | [13] > 100 µM | [14] > 100 µM | [15] > 100 µM | [16] 4.8 µM | [17] 13.3 µM | [19] 10.7 µM

CC1SC(=O)SC1C (stereo not given)
inactive: [1] > 100 µM | [2] > 100 µM | [3] > 100 µM | [5] > 100 µM | [6] > 100 µM | [7] > 100 µM | [18] > 100 µM | [20] > 100 µM | [10] > 100 µM | [12] > 100 µM | [13] > 100 µM | [15] > 100 µM | [16] > 100 µM | [17] > 100 µM | [19] > 100 µM

CC(C)C(O)(C(=O)OCN1C(=O)C2C3C=CC(C2C1=O)C1C2C(=O)N(COC(=O)C(O)(C(C)C)C(C)O)C(=O)C2C31)C(C)O (stereo not given)
inactive: [1] > 100 µM | [2] > 100 µM | [3] > 100 µM | [5] > 100 µM | [6] > 100 µM | [7] > 100 µM | [8] > 100 µM | [9] > 100 µM | [18] > 100 µM | [20] > 100 µM | [10] > 100 µM | [11] > 100 µM | [12] > 100 µM | [13] > 100 µM | [14] > 100 µM | [15] > 100 µM | [16] > 100 µM | [17] > 100 µM | [19] > 100 µM

COc1ccc(-c2c(C#N)c(N)n(C3OCC(O)C(O)C3O)c(=S)c2C#N)cc1 (stereo not given)
inactive: [1] > 100 µM | [2] > 100 µM | [3] > 100 µM | [5] > 100 µM | [6] > 100 µM | [7] > 100 µM | [8] > 100 µM | [9] > 100 µM | [18] > 100 µM | [20] > 100 µM | [10] > 100 µM | [11] > 100 µM | [12] > 100 µM | [13] > 100 µM | [14] 21.6 µM | [15] > 100 µM | [16] > 100 µM | [17] 95.9 µM | [19] > 100 µM

CC(C)(C)OC(=O)NC(Cc1ccc([N+](=O)[O-])cc1)C(=O)NC(CCCCNC(=O)OCc1ccccc1)C(=O)ON1C(=O)CCC1=O (stereo not given)
inactive: [1] > 100 µM | [2] 24.4 µM | [3] > 100 µM | [4] > 100 µM | [5] > 100 µM | [6] > 100 µM | [7] 57.9 µM | [8] > 100 µM | [9] > 100 µM | [18] > 100 µM | [20] > 100 µM | [10] > 100 µM | [11] > 100 µM | [12] > 100 µM | [13] > 100 µM | [15] 70.6 µM | [16] 49.4 µM | [17] > 10 µM | [19] > 100 µM
